Results from patent US20230117831A1, “MULTI-FUNCTIONAL CHIMERIC MOLECULES” (THE BROAD INSTITUTE, INC., priority 2020, published 2023).
Like-named read-outs stand apart in the source and are kept apart here.

Legend:
PKCalpha = PKCalpha (Homo sapiens, UniProt P17252); details: PKC alpha; read-out: Kd; cited from earlier work
PKC beta = PKC beta (Homo sapiens, UniProt P05771); details: PKC beta, cited from earlier work
PKC epsilon = target: T1, PKC epsilon (Homo sapiens, UniProt Q02156); details: PKC epsilon, cited from earlier work
T1 sequence (Q02156 1-737): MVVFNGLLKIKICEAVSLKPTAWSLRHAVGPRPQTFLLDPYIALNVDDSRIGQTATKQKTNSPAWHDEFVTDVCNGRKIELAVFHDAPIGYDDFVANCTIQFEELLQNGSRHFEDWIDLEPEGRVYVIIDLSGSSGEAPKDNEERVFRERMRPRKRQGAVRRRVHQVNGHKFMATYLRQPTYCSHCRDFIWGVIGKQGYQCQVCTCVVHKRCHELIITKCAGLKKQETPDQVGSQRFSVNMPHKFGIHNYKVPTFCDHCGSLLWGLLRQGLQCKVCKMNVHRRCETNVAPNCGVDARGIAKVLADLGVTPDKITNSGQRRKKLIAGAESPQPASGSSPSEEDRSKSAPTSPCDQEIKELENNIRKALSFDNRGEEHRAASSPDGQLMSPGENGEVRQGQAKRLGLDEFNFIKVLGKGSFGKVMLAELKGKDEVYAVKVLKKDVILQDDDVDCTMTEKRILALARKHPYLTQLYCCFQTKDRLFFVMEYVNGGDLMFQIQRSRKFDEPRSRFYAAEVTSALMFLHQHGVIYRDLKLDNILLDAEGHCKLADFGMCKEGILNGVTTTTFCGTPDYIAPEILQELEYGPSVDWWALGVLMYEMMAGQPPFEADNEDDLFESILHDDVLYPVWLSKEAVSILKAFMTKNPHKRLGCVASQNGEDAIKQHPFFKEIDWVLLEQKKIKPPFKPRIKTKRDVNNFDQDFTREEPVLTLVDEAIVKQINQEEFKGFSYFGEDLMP

[1] = system: breast carcinoma cell lines MCF-7 and MDA-MB-231; details: cited from earlier work
PKC delta = PKC delta (Homo sapiens, UniProt Q05655); details: PKC delta, cited from earlier work
PKC gamma = PKC gamma (Homo sapiens, UniProt P05129); details: PKC gamma, cited from earlier work
PKC eta = PKC eta (Homo sapiens, UniProt P24723); details: cited from earlier work
PKCα = PKCα (Homo sapiens, UniProt P17252); test: ADP-Glo kinase activation, CREBtide peptide; assay type: biochemical; parameters: GST; purchased SignalChem P61-18G
Description: ADP-Glo assay was performed with PHICS (PKC) in a similar manner with some modifications as follows. In a 96 well plate (white, flat bottom), similar concentration series of PHICS (2.1, 2.2, 2.3, 2.4 and 2.5) were prepared using same kinase assay buffer and incubated with 2 ng of PKC, 0.2 μg/μL CREBtide peptide and 50 μM ATP for 1 hr at room temperature before incubation with ADP-Glo assay reagents.

BRAF = BRAF (Homo sapiens, UniProt P15056); details: cited from earlier work
BRD4 (AMPK) = BRD4 (AMPK) (Homo sapiens, UniProt O60885+Q13131+Q9Y478); test: in vitro kinase assay, BRD4 phosphorylation by AMPK with/without AMP; assay type: biochemical; details: 1 uM compound, with and without 100 uM AMP
Description: In vitro kinase assay was conducted for BRD4 phosphorylation by AMPK (1 uM compound). Compounds MS231, and VS806 tested are depicted below.
Compounds MS231, VS806 and VS804 were tested with and without 100 uM AMP. ADP glo for BRD4 phosphorylation by AMPK with and without AMP was conducted. The addition of AMP enhanced the phosphorylation signal, with ADP production measured at 2 hours, 20 nM AMPK.

FGFR1 = FGFR1 (Homo sapiens, UniProt P11362); details: cited from earlier work
RET = RET (Homo sapiens, UniProt P07949); details: cited from earlier work
LYN [isoform a] = LYN [isoform a] (Homo sapiens, UniProt P07948); details: cited from earlier work
DDR2 = target: T2, DDR2 (Homo sapiens, UniProt Q16832); details: cited from earlier work
T2 sequence (Q16832 22-855): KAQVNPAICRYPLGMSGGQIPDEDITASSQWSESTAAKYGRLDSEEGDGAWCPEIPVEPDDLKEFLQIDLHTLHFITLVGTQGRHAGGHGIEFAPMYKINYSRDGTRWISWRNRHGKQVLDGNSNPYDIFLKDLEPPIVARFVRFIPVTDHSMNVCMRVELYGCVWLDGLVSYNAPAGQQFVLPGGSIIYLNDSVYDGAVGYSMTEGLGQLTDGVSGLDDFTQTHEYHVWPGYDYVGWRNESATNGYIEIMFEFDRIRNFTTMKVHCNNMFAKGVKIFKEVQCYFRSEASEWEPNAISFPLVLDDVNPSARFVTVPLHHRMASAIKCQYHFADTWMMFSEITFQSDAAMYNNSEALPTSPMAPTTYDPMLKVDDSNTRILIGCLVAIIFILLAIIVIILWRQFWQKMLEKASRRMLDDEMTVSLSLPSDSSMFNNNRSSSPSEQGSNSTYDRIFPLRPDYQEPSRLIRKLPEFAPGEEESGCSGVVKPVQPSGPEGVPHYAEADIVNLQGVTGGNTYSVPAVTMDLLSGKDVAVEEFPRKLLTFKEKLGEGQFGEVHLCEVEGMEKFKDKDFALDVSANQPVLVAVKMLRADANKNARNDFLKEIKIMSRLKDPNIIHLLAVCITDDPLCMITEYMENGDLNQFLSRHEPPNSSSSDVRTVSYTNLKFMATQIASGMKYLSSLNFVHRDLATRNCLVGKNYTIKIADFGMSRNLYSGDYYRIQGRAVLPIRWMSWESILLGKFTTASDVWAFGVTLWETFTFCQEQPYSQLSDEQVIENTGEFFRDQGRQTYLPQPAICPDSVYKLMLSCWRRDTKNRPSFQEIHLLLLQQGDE

BTK = BTK (Homo sapiens, UniProt Q06187); details: cited from earlier work
TIE2 = TIE2 (Homo sapiens, UniProt Q02763); details: cited from earlier work
FYN [isoform a] = FYN [isoform a] (Homo sapiens, UniProt P06241); details: cited from earlier work
BRD4 (Abl) = BRD4 (Abl) (Homo sapiens, UniProt O60885+P00519); test: tyrosine phosphorylation Abl-BRD4 (Millipore); assay type: biochemical; details: relative to control DMSO
Description: Multi-functional molecules comprising a BRD4 localizing moiety and an Abl activator moiety were assayed for tyrosine phosphorylation activity (Millipore)(FIG. 91). […] DPH derived PHICS phosphorylation levels, and thus, Abl engagement, varied by attachment of the DPH derivative to the multifunctional chimeric molecule via orienting adaptor and linker (FIG. 92).

Chain of PKC eta (P24723 whole entry): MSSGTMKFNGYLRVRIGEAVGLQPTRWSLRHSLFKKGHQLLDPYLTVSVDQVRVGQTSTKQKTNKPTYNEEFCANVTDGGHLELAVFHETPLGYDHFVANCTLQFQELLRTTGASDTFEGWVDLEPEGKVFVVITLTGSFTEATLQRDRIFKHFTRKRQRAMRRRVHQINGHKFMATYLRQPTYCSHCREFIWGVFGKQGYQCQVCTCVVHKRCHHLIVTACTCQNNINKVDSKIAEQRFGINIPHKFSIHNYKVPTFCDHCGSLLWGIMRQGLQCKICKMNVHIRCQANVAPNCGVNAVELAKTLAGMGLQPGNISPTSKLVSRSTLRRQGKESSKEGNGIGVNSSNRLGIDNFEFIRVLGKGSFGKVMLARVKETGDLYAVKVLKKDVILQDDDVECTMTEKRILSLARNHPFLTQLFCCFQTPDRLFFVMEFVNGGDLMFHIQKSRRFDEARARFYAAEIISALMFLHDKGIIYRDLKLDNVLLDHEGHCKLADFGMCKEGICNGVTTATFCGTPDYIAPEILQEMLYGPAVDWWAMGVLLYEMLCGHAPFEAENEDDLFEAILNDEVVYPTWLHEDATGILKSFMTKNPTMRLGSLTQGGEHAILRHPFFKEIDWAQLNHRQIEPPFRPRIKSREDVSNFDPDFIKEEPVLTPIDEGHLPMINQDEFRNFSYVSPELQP
Chain of FGFR1 (P11362 22-822, species assumed): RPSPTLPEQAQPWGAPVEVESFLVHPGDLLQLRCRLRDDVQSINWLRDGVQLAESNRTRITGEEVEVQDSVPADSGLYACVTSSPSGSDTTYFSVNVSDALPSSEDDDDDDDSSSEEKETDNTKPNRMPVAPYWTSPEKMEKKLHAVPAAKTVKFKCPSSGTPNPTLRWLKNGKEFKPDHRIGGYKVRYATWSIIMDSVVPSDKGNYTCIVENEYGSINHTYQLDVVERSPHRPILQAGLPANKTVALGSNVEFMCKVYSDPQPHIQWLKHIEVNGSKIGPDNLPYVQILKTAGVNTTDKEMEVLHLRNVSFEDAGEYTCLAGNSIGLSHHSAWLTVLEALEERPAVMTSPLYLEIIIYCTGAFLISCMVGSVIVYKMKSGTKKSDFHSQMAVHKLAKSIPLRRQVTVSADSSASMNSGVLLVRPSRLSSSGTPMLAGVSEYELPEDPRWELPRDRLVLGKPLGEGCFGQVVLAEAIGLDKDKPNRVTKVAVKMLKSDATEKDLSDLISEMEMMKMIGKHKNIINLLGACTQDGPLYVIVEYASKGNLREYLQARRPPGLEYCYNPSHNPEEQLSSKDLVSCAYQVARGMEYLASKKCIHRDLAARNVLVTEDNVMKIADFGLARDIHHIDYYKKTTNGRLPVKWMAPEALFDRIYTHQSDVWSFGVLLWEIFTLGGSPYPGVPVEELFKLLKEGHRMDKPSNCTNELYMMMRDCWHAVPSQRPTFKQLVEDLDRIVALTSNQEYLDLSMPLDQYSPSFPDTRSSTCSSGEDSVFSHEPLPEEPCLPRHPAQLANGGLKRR
Chain of FYN [isoform a] (P06241 whole entry, canonical isoform): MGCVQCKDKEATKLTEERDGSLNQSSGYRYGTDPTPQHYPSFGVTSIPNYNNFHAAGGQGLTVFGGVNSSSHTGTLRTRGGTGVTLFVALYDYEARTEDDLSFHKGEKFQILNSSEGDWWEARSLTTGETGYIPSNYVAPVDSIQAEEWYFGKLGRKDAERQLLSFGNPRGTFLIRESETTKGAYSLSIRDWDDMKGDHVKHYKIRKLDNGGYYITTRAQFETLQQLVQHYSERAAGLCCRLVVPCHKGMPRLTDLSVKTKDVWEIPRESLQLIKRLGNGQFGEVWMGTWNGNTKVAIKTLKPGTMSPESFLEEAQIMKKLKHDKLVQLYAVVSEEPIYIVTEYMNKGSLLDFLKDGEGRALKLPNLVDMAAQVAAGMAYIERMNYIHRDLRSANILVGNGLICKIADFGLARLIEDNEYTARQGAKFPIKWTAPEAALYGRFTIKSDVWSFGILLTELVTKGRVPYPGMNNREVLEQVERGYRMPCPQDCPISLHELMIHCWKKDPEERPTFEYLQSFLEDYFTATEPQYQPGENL
Chain of TIE2 (Q02763 23-1124, species assumed): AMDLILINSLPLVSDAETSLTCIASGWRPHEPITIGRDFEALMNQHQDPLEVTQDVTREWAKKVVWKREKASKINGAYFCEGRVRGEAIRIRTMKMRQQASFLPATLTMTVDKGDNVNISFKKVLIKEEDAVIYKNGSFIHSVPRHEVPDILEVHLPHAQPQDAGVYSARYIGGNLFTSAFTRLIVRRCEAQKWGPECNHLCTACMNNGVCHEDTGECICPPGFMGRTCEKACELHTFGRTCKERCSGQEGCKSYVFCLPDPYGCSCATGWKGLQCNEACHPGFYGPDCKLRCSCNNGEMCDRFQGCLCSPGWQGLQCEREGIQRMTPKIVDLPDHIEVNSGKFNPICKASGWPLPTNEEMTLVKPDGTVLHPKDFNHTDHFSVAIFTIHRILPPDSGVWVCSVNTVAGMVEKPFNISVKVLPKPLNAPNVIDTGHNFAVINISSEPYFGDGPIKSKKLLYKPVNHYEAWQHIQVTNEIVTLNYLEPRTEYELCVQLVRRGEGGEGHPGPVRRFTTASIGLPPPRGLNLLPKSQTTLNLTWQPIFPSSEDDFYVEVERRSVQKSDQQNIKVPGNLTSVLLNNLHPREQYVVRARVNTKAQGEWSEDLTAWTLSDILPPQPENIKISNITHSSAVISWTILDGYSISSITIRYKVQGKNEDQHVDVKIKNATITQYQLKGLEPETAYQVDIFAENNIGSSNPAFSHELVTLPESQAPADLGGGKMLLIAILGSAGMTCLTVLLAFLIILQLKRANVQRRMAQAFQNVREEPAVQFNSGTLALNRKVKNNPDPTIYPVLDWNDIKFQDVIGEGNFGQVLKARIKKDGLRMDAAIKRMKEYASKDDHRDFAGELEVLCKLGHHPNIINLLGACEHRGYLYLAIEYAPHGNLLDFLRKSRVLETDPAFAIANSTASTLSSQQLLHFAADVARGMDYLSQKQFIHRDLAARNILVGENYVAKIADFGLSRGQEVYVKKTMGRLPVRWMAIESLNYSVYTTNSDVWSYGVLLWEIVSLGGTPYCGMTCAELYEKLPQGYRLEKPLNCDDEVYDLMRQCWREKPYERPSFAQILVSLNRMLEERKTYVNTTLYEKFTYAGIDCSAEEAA
Chain of LYN [isoform a] (P07948 whole entry, canonical isoform): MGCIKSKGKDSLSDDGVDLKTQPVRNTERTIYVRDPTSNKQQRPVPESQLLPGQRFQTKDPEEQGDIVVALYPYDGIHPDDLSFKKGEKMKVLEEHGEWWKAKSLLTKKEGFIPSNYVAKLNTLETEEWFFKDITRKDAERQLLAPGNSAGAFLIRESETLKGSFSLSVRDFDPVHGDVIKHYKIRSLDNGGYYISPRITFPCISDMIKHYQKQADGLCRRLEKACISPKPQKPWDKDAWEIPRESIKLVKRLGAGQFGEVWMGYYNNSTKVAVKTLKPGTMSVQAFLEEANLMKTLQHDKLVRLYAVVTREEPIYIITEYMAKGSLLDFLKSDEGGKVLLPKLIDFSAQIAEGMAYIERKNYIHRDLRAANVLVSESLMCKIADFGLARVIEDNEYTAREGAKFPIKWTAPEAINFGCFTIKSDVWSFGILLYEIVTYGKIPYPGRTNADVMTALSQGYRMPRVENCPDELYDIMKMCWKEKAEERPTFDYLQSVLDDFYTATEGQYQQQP

**Q.** Which Kd (PKCalpha) does the source give for `CC(C)[C@H]1C(=O)N[C@H](CO)CCc2c[nH]c3cccc(c23)N1C` here?
**A.** 11 nM

**Q.** What about the Kd (PKC beta; read-out: Kd) of the same molecule?
**A.** 6.1 nM

**Q.** And the Kd (PKC epsilon; read-out: Kd)?
**A.** 21.9 nM

**Q.** What about the “antiproliferative activity against breast carcinoma” value [1] of the same molecule?
**A.** inactive against breast carcinoma

**Q.** What about the Kd (PKC delta; read-out: Kd) of the same molecule?
**A.** 8.2 nM

**Q.** And the Kd (PKC gamma; read-out: Kd)?
**A.** 19.4 nM

**Q.** What does the source list for `C=C(C)[C@@]12OC3(c4ccccc4)O[C@@H]1[C@@H]1C4OC4(CO)C[C@]4(O)C(=O)C(C)=C[C@H]4[C@@]1(O3)[C@H](C)[C@H]2OC(=O)/C=C/C=C/c1ccccc1` (some centres unmarked)?
**A.** Kd (PKCalpha): 0.27 nM; Kd (PKC beta; read-out: Kd): 0.16 nM; Kd (PKC epsilon; read-out: Kd): 1.2 nM; Kd (PKC eta; read-out: Kd): 1.27 nM; Kd (PKC delta; read-out: Kd): 0.55 nM; Kd (PKC gamma; read-out: Kd): 0.21 nM

**Q.** What does the source list for `C=C(C)[C@@]12OC3(c4ccccc4)O[C@@H]1[C@@H]1C4OC4(CO)C[C@]4(O)C(=O)C(C)=C[C@H]4[C@@]1(O3)[C@H](C)[C@H]2OC(=O)CCCCc1ccccc1` (some centres unmarked)?
**A.** Kd (PKCalpha): 0.82 nM; Kd (PKC beta; read-out: Kd): 0.51 nM; Kd (PKC epsilon; read-out: Kd): 3.13 nM; Kd (PKC eta; read-out: Kd): 2.48 nM; Kd (PKC delta; read-out: Kd): 2.17 nM; Kd (PKC gamma; read-out: Kd): 0.8 nM

**Q.** For `CCCCCCCCCCCCCC(=O)OC1C(C)C2(O)C(C=C(CO)CC3(O)C(=O)C(C)=CC32)C2C(C)(C)C12OC(C)=O` (centres unmarked), which Kd (PKC beta) is on record?
**A.** 0.16 nM

**Q.** And the Kd (PKC epsilon)?
**A.** 3.11 nM

**Q.** What about the Kd (PKC eta) of the same molecule?
**A.** 2.63 nM

**Q.** And the Kd (PKC delta)?
**A.** 1.31 nM

**Q.** And the Kd (PKC gamma)?
**A.** 0.26 nM

**Q.** For `Cc1sc2c(c1C)C(c1ccc(Cl)cc1)=NC(CC(=O)NCCCCCC(=O)NCc1ccc(COc3ccc4c(c3)N(C)[C@@H](C(C)C)C(=O)N[C@H](CO)C4)cc1)c1nnc(C)n1-2` (stereo partly drawn) [(R)-PHICS2.3], which “PKC activation (ADP-Glo)” value (PKCα) is on record?
**A.** still activated

**Q.** For `CC(C)(C)c1nc(-c2cccc(NS(=O)(=O)c3c(F)cccc3F)c2F)c(-c2ccnc(N)n2)s1` [Dabrafenib], which ka (BRAF) is on record?
**A.** 467000 M⁻¹ s⁻¹

**Q.** What about the kd (BRAF) of the same molecule?
**A.** 0.000288 s⁻¹

**Q.** Which “effect of addition of AMP on BRD4 phosphorylation signal” value (BRD4 (AMPK)) does the source give for `Cc1sc2c(c1C)C(c1ccc(Cl)cc1)=N[C@@H](CC(=O)NCc1cn(CCCCCC(=O)NCCOc3ccc(-c4cc5c(C(=O)O)c[nH]c5cc4Cl)cc3)nn1)c1nnc(C)n1-2` [MS231] here?
**A.** enhances the phosphorylation signal

**Q.** Which results are given for `Cc1ccc(C(=O)Nc2ccc(CN3CCN(C)CC3)c(C(F)(F)F)c2)cc1C#Cc1cnc2cccnn12` [Ponatinib]?
**A.** ka (FGFR1): 17900 M⁻¹ s⁻¹; kd (FGFR1): 0.000119 s⁻¹; log(ka) (FGFR1): 4.25; log(kd) (FGFR1): −3.93; ka (RET): 118000 M⁻¹ s⁻¹; kd (RET): 4.29e-05 s⁻¹; log(ka) (RET): 5.07; log(kd) (RET): −4.37; ka (LYN [isoform a]): 110000 M⁻¹ s⁻¹; kd (LYN [isoform a]): 5.4e-05 s⁻¹; log(ka) (LYN [isoform a]): 5.04; log(kd) (LYN [isoform a]): −4.27; ka (DDR2): 29800 M⁻¹ s⁻¹; kd (DDR2): 0.00014 s⁻¹; log(ka) (DDR2): 4.47; log(kd) (DDR2): −3.85; ka (BTK): 21500 M⁻¹ s⁻¹; kd (BTK): 0.0168 s⁻¹; ka (TIE2): 40200 M⁻¹ s⁻¹; kd (TIE2): 0.00268 s⁻¹; log(ka) (TIE2): 4.60; log(kd) (TIE2): −2.57; ka (FYN [isoform a]): 84900 M⁻¹ s⁻¹; kd (FYN [isoform a]): 8.93e-05 s⁻¹; log(ka) (FYN [isoform a]): 4.93; log(kd) (FYN [isoform a]): −4.05

**Q.** With `Cc1sc2c(c1C)C(c1ccc(Cl)cc1)=NC(CC(=O)NCCOCCOCCOCCOCCC(=O)NC1=NN(c3ccc(Cl)c(Cl)c3)CC1)c1nnc(C)n1-2` (centres unmarked) [VS801] as the molecule, how does the “tyrosine phosphorylation enzymatic activity” value (BRD4 (Abl)) read?
**A.** high tyrosine phosphorylation enzymatic activity

**Q.** With `Cc1sc2c(c1C)C(c1ccc(Cl)cc1)=N[C@@H](CC(=O)NCCOCCOCCOCCOCCC(=O)NCCOc1ccc(-c3cc4c(C(=O)O)c[nH]c4cc3Cl)cc1)c1nnc(C)n1-2` [VS806] as the molecule, how does the “effect of addition of AMP on BRD4 phosphorylation signal” value (BRD4 (AMPK)) read?
**A.** enhances the phosphorylation signal

**Q.** With `Cc1sc2c(c1C)C(c1ccc(Cl)cc1)=NC(CC(=O)NCCOCCOCCOCCOCCC(=O)NC1=NN(c3ccc(Cl)c(Cl)c3)CC1)c1nnc(C)n1-2` (centres unmarked) [VS850] as the molecule, how does the “tyrosine phosphorylation enzymatic activity” value (BRD4 (Abl)) read?
**A.** inactive
